The results in this text go back to patent US10954287B2, “Ras binding peptides and methods of use” (Ra Pharmaceuticals, Inc., priority 2016, dated 2021).

Experiment [1] has as its system human lung cancer cell line H358. The experiment in a line: Cell permeability by monitoring intracellular fluorescence. It counts as cell-based. The settings on record: H358 cells treated 3.5 hours, serum-free media; compared to negative control and scrambled R4007. On the procedure: Cell permeability of R4007 (a TAMRA-labeled R4000 derivative) was determined in the human lung cancer cell line H358 (ATCC, Manassas, Va.). Cells were maintained in RPMI-1640 with 10% FBS at 37° C., 95% relative humidity, 5% CO2. For experiments, cells were seeded at 50,000 cells/well in growth media on 96-well glass bottom plates (Greiner, Monroe, N.C.) and incubated 24 hours prior to treatment. Media was removed from cells and replaced with indicated treatment solutions prepared in serum-free media (0.1% DMSO final). Cells were treated for 3.5 hours, then washed 3 times with PBS, fixed with 4% formaldehyde in PBS for 5 minutes at room temperature, and washed 3 times with PBS. Cell nuclei were stained with 1 μg/ml DAPI nuclear stain for 5 minutes at room temperature. Images were captured using a Zeiss Axio Observer inverted microscope with 63× oil objective with excitation 365 nm/emission 445 for DAPI and excitation 565 nm/emission 620 for TAMRA. TAMRA signal was much stronger in cells treated with R4007 as compared to negative control and cells treated with scrambled R4007.

Experiment [2] concerns GMPPNP-loaded H-Ras or GTP-loaded K-Ras. The experiment in a line: Fluorescence polarization competition assay with TAMRA-labeled probe R4007. It counts as binding, human. The settings on record: 120 nM Ras, 30 nM probe R4007, 60 minutes at room temperature; read-out: Probe displacement (nM IC50). The method in brief:
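120 nM GMPPNP-loaded H-Ras or GTP-loaded K-Ras was preincubated with 30 nM TAMRA-labeled R4007 probe for 20 min at room temperature in Tris pH 7.5 buffer with MgCl2, EDTA and Triton X-100. Serially diluted competitor was then added for 60 min. Polarization was read at 535/595 nm, with Ki from a one-site Ki fit and IC50 from probe displacement.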

SMILES strings stand for the structures. Where a SMILES comes first, the peptide text is derived from it. [ ]: non-standard residue; d: D form. Trp(7-aza) = N[C@@H](Cc1c[nH]c2ncccc12)C(=O)O; NMePhe(4-F) = CN[C@@H](Cc1ccc(F)cc1)C(=O)O; Phg = N[C@H](C(=O)O)c1ccccc1; Tle = CC(C)(C)[C@H](N)C(=O)O; NMeA = CN[C@@H](C)C(=O)O; Pra = C#CC[C@H](N)C(=O)O; Ahx = NCCCCCC(=O)O; Sar = CNCC(=O)O

For `CCC[C@H](NC(C)=O)C(=O)N[C@H]1CSCc2cccc(c2)CSC[C@@H](C(=O)N[C@@H](Cc2cn(CCCNC(=O)c3ccc(-c4c5ccc(=[N+](C)C)cc-5oc5cc(N(C)C)ccc45)c(C(=O)[O-])c3)nn2)C(N)=O)NC(=O)CN(C)C(=O)[C@H](Cc2ccc(F)cc2)N(C)C(=O)[C@H](Cc2ccc(O)cc2)NC(=O)[C@H](Cc2c[nH]c3ncccc23)NC(=O)[C@H](c2ccccc2)NC(=O)[C@H](C)N(C)C(=O)[C@H](Cc2cnc[nH]2)NC(=O)[C@H](CCCCN)NC(=O)[C@H](C(C)(C)C)NC(=O)[C@H](Cc2ccc(O)cc2)NC1=O` [Compound R4007], the “intracellular TAMRA signal” value in experiment [1] is recorded as “much stronger”.
Regarding `CCC[C@H](NC(C)=O)C(=O)N[C@H]1CSCc2cccc(c2)CSC[C@@H](C(N)=O)NC(=O)CN(C)C(=O)[C@H](Cc2ccc(F)cc2)N(C)C(=O)[C@H](Cc2ccc(O)cc2)NC(=O)[C@H](Cc2c[nH]c3ncccc23)NC(=O)[C@H](c2ccccc2)NC(=O)[C@H](C)N(C)C(=O)[C@H](Cc2c[nH]cn2)NC(=O)[C@H](CCCCN)NC(=O)[C@H](C(C)(C)C)NC(=O)[C@H](C)NC1=O` (relative stereo) [Compound R4152, ACE-NVA-CYS*-ALA-TBG-LYS-HIS-NMA-PHG-7AW-TYR-MFF-SAR-CYS*-NH2], the IC50 in experiment [2] stood at 28300 nM.
The same measure, in the same setting: under `C#CC[C@@H]1NC(=O)CN(C)C(=O)[C@H](Cc2ccc(F)cc2)N(C)C(=O)[C@H](Cc2ccc(O)cc2)NC(=O)[C@H](Cc2c[nH]c3ncccc23)NC(=O)[C@H](c2ccccc2)NC(=O)[C@H](C)N(C)C(=O)[C@H](Cc2c[nH]cn2)NC(=O)[C@H](CCCCN)NC(=O)[C@H](C(C)(C)C)NC(=O)[C@H](Cc2ccc(O)cc2)NC(=O)CCCCCNC1=O` [Compound R4137, AHX*-TYR-TBG-LYS-HIS-NMA-PHG-7AW-TYR-MFF-SAR-PRG*] (cyclo([Ahx]Y[Tle]KH[NMeA][Phg][Trp(7-aza)]Y[NMePhe(4-F)][Sar][Pra])) stands 411 nM; under `CCC[C@H](NC(C)=O)C(=O)N[C@H]1CSCc2cccc(c2)CSC[C@@H](C(N)=O)NC(=O)[C@H](CO)N(C)C(=O)[C@H](Cc2ccc(F)cc2)N(C)C(=O)[C@H](Cc2ccc(O)cc2)NC(=O)[C@H](Cc2c[nH]c3ncccc23)NC(=O)[C@H](c2ccccc2)NC(=O)[C@H](C)N(C)C(=O)[C@H](Cc2c[nH]cn2)NC(=O)[C@H](CCCCN)NC(=O)[C@H](C(C)(C)C)NC(=O)[C@H](Cc2ccc(O)cc2)NC1=O` (relative stereo) [Compound R4118, ACE-NVA-CYS*-TYR-TBG-LYS-HIS-NMA-PHG-7AW-TYR-MFF-NMS-CYS*-NH2], 51.5 nM; under `CCC[C@H](NC(C)=O)C(=O)N[C@H]1CSCc2cccc(c2)CSC[C@@H](C(N)=O)NC(=O)CN(C)C(=O)[C@H](Cc2ccc(F)cc2)N(C)C(=O)[C@H](Cc2ccc(O)cc2)NC(=O)[C@H](Cc2c[nH]c3ncccc23)NC(=O)[C@H](c2ccccc2)NC(=O)[C@H](C)N(C)C(=O)[C@H](Cc2c[nH]cn2)NC(=O)[C@H](CCCCN)NC(=O)[C@H](C(C)(C)C)NC(=O)[C@H](Cc2ccc(O)cc2)N(C)C1=O` (relative stereo) [Compound R4117, ACE-NVA-CYS*-NMY-TBG-LYS-HIS-NMA-PHG-7AW-TYR-MFF-SAR-CYS*-NH2], 48.3 nM.
